# Measured values: paper PMC12827894, “Structure-guided design of picomolar-level macrocyclic TRPC5 channel inhibitors with antidepressant activity” (Acta Pharmaceutica Sinica. B, 2025)
# Columns and labels:
# 5-HT3A = biological target: T1, 5-HT3A (Homo sapiens, UniProt P46098); format: cell-based
# T1 construct: ICE Bioscience ICESTP SafetyOne44 Panel
# C57BL/6J mice [1] = test: CCK-4-induced anxiety model, elevated plus maze; format: in vivo; conditions: CCK-4 model, 10 mg/kg p.o.
# α2A = biological target: T2, α2A (Homo sapiens, UniProt P08913); test: cell-based; format: cell-based
# T2 construct: purchased ICE Bioscience ICESTP SafetyOne44 Panel
# T2 sequence (P08913 whole entry): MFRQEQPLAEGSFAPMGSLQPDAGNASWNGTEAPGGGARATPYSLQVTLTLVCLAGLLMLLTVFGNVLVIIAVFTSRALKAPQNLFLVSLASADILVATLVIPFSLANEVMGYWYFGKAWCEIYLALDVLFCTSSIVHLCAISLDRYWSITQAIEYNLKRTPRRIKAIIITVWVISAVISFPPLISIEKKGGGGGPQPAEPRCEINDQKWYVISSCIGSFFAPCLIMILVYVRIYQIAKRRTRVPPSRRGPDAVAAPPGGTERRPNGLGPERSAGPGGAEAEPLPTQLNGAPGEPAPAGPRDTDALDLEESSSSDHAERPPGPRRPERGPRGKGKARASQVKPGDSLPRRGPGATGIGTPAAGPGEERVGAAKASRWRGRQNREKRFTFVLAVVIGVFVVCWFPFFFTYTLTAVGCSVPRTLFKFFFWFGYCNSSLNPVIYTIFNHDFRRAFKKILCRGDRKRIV
# GR = biological target: T3, GR (Homo sapiens, UniProt P04150); test: SafetyOne44 panel: GR; format: cell-based
# T3 construct: purchased ICE Bioscience ICESTP™ SafetyOne44 Panel
# T3 sequence (P04150 whole entry): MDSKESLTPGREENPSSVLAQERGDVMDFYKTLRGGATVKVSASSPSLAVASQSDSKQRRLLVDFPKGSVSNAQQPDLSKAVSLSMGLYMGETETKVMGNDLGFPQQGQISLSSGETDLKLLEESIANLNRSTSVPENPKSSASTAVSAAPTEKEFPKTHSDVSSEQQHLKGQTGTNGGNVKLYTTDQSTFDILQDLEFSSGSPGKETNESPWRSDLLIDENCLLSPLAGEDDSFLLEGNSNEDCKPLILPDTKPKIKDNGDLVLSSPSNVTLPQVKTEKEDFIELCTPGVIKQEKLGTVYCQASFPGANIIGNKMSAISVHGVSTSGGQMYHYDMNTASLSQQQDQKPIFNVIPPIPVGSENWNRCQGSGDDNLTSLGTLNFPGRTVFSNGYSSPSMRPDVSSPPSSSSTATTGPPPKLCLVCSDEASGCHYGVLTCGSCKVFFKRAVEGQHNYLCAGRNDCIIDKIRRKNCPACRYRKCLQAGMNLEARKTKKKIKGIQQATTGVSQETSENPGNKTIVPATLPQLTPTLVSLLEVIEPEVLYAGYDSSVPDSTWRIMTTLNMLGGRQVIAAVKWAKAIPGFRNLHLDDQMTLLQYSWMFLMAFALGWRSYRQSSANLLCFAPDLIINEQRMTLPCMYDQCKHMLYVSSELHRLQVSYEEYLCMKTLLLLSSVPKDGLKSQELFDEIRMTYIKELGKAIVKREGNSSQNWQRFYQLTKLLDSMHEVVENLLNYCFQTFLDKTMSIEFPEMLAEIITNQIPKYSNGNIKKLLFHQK
# PDE3 A = biological target: T4, PDE3 A (Homo sapiens, UniProt Q14432); test: SafetyOne44 panel: PDE3A; format: biochemical; conditions: 10 μmol/L, read-out: Antagonist JDIC-127 @10 μmol/L
# T4 construct: purchased ICE Bioscience ICESTP™ SafetyOne44 Panel
# CB1 = biological target: T5, CB1 (Homo sapiens, UniProt P21554); test: cell-based; format: cell-based
# T5 construct: purchased ICE Bioscience ICESTP™ SafetyOne44 Panel
# T5 sequence (P21554 whole entry): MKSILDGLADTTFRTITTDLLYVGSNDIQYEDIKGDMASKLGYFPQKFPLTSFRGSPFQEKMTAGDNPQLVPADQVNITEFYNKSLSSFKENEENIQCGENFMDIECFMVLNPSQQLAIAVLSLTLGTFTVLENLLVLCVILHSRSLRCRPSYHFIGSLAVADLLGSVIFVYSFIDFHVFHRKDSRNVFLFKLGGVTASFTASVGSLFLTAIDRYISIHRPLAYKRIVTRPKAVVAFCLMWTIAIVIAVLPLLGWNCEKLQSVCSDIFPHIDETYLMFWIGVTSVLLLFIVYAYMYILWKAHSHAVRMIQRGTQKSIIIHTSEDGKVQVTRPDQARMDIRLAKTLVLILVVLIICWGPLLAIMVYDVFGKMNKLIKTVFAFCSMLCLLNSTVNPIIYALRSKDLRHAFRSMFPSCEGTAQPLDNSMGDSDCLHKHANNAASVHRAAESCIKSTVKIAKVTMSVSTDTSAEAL
# nAChRα4β2 = biological target: T6, nAChRα4β2 (Homo sapiens, UniProt P17787+P43681); test: SafetyOne44 panel ion channels: nAChRα4β2; format: cell-based; conditions: 5 μmol/L
# T6 construct: ICE Bioscience ICESTP SafetyOne44 Panel
# T6 sequence (P43681 29-627 limits assumed): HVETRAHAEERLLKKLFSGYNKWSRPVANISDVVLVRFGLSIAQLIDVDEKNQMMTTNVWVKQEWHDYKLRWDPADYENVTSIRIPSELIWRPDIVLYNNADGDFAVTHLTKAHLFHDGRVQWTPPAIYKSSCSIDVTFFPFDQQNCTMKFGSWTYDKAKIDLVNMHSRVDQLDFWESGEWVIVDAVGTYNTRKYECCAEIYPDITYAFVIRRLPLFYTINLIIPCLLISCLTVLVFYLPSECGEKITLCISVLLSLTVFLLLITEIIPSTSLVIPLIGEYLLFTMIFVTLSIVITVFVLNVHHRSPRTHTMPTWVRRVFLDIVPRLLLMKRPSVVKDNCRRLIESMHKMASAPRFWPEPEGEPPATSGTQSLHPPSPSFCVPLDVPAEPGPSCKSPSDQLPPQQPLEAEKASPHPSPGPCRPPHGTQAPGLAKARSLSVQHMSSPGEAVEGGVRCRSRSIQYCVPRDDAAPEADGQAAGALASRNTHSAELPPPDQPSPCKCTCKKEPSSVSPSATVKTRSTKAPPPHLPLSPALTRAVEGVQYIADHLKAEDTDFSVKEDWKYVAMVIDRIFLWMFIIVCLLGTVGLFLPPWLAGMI
# T6 sequence (P17787 26-502): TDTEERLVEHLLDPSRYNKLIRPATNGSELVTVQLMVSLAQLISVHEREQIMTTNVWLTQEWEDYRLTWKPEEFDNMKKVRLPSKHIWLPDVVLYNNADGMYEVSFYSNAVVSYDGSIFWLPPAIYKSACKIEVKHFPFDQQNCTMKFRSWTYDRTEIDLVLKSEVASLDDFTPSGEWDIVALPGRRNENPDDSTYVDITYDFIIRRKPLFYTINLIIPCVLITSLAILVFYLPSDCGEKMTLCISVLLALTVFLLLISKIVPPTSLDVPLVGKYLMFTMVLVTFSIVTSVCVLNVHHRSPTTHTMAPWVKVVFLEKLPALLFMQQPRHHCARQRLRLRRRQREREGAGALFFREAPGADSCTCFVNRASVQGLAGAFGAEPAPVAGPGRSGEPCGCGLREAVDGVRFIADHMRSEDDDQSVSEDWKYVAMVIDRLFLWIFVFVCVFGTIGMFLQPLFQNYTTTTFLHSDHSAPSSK
# C57BL/6J mice [2] = test: m-CPP-induced anxiety model, marble burying test; format: in vivo; conditions: p.o.
# TRPC5 = biological target: T7, TRPC5 (Homo sapiens, UniProt Q9UL62); test: cell-based
# T7 sequence (Q9UL62 1-973): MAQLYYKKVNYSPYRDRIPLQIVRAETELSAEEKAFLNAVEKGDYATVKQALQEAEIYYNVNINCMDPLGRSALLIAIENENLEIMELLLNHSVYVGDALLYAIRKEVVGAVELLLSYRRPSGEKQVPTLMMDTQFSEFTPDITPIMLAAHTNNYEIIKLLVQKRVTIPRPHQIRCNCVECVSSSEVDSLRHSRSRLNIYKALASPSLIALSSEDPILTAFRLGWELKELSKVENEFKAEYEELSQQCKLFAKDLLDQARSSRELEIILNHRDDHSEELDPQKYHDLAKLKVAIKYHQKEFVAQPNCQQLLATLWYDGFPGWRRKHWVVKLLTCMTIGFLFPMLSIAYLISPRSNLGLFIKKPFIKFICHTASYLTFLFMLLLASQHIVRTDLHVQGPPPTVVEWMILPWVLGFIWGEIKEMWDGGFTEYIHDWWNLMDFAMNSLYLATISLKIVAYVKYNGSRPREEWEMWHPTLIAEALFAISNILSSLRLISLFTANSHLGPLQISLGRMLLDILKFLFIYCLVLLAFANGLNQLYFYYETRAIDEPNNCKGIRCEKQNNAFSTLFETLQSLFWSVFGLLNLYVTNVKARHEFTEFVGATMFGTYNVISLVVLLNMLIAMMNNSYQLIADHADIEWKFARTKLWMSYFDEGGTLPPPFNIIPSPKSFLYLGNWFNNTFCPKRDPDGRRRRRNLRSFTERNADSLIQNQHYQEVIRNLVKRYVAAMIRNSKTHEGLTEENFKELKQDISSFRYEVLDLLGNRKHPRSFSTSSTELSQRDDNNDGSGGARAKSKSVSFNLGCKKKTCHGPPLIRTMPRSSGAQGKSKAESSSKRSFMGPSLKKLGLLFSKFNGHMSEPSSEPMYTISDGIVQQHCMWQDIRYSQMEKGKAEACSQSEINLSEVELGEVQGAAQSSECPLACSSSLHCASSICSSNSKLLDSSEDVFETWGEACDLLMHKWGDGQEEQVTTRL
# C57BL/6 mice = test: Forced swim test (FST); format: in vivo; conditions: 0.3 or 3 mg/kg p.o., 14 days
# δOR = biological target: T8, δOR (Homo sapiens, UniProt P41143); test: cell-based; format: cell-based
# T8 construct: purchased ICE Bioscience ICESTP™ SafetyOne44 Panel
# T8 sequence (P41143 whole entry): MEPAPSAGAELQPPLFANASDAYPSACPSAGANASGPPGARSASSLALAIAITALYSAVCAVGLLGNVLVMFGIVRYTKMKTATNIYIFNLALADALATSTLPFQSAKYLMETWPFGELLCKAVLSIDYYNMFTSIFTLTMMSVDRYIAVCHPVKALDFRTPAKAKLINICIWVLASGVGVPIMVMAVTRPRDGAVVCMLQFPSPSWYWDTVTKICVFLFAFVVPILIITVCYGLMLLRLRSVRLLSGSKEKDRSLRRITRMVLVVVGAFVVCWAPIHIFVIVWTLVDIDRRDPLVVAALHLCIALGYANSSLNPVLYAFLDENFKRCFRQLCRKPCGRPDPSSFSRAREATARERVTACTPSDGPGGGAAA
# α1A = α1A (Homo sapiens, UniProt P35348); test: cell-based; format: cell-based
# Chain of α1A (P35348 whole entry): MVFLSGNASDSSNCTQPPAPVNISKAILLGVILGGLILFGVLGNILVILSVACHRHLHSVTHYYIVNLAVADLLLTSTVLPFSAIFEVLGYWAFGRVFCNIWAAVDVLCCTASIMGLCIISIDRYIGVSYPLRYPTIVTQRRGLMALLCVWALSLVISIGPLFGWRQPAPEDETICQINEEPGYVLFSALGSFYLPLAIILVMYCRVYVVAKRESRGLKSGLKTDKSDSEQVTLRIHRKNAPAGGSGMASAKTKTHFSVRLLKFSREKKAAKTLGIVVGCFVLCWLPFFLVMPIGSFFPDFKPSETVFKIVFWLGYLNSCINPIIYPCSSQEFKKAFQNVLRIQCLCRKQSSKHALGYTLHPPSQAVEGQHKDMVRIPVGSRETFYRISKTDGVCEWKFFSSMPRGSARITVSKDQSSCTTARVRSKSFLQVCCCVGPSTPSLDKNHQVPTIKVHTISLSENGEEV
# ETA = biological target: T9, ETA (Homo sapiens, UniProt P25101); test: SafetyOne44 panel: ETA; format: cell-based; conditions: ETA, 10 μmol/L
# T9 construct: purchased ICE Bioscience ICESTP™ SafetyOne44 Panel
# T9 sequence (P25101 21-427): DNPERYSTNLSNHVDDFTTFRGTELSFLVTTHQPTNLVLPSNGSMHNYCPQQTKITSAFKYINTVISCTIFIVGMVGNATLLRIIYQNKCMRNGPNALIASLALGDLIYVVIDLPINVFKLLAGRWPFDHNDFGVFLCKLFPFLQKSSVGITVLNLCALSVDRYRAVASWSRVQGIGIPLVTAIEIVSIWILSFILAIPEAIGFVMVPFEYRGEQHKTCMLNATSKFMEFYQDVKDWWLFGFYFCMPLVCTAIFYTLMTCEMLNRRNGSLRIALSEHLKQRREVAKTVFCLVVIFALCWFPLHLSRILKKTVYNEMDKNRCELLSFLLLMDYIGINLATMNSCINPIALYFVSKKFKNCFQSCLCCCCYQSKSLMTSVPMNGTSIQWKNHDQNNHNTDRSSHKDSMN
# A2A = biological target: T10, A2A (Homo sapiens, UniProt P29274); format: cell-based
# T10 construct: purchased ICE Bioscience ICESTP SafetyOne44 Panel
# T10 sequence (P29274 whole entry): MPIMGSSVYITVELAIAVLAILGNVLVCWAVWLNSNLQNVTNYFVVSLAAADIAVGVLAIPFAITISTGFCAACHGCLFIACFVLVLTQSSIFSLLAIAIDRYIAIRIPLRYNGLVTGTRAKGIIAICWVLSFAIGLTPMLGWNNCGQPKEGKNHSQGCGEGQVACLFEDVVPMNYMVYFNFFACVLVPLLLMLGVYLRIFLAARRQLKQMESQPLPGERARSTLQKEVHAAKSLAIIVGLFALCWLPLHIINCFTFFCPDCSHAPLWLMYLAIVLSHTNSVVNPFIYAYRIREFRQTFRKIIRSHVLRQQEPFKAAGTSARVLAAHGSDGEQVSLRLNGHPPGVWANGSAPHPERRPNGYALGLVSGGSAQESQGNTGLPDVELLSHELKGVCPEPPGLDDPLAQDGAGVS
# GABAA = format: cell-based
# [3] = system: 44 clinically safety-related targets
# TRPC5 Q573A = biological target: T11, TRPC5 Q573A (Homo sapiens, UniProt Q9UL62, Q573A); test: Inhibition of TRPC5 mutant Q573A; format: cell-based; conditions: TRPC5 Q573A vs wild type
# T11 construct: full-length wild-type or mutant TRPC5 was cloned into a pcDNA3.1 vector; expressed in transfected cells; host or cells: HEK293T
# in vitro = in vitro ADME; conditions: not told
# Source text: Table 1 Pharmacokinetic properties of JDIC-127. | column: ER; Papp (cm/s)
# TRPC6 = TRPC6 (Homo sapiens, UniProt Q9Y210); test: Patch-clamp selectivity, TRPC6; format: cell-based; conditions: 1 μmol/L
# [4] = antagonist mode, 10 μmol/L, read-out: Antagonist JDIC-127 @10 μmol/L
# T1 sequence (P46098 24-478, species assumed): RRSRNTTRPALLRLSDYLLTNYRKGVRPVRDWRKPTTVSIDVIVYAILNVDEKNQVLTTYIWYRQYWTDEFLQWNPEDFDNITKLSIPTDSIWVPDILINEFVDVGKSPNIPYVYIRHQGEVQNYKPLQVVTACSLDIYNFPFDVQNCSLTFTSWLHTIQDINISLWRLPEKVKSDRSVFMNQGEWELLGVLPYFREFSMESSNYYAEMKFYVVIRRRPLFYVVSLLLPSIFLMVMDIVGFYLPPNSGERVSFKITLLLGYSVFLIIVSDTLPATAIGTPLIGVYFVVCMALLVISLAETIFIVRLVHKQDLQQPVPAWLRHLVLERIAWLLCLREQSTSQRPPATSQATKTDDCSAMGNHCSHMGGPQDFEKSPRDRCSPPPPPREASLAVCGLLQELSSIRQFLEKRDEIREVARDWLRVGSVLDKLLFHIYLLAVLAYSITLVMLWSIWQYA
structure (smiles),measurement,setting,value
O=c1c2c3nc(n2Cc2ccc(Cl)cc2)Oc2ccc(F)c(c2)OCCCCCCn3c(=O)n1CCCO [JDIC-127],Agonist JDIC-127 @ 5 μmol/L,5-HT3A; agonist mode,0.39%
same,Antagonist JDIC-127 @5 μmol/L,5-HT3A; antagonist mode,17.73%
same,"percentage of entries in the open arms, EPM",C57BL/6J mice [1],significantly increased
same,Agonist JDIC-127 @10 μmol/L,α2A; agonist mode,–1.14%
same,inhibition at 10 µM,α2A; [4],-8.62%
same,Agonist JDIC-127 @10 μmol/L,GR; agonist mode,0.05%
same,inhibition at 10 µM,GR; [4],4.73%
same,inhibition at 10 µM,PDE3 A,2.27%
same,Agonist JDIC-127 @10 μmol/L,"CB1; CB1, agonist mode",33.32%
same,inhibition at 10 µM,"CB1; CB1, antagonist mode, 10 μmol/L, read-out: Antagonist JDIC-127 @10 μmol/L",-9.83%
same,Agonist JDIC-127 @ 5 μmol/L,"nAChRα4β2; nAChRα4β2, agonist mode",0.97%
same,Antagonist JDIC-127 @5 μmol/L,"nAChRα4β2; nAChRα4β2, antagonist mode",2.92%
same,"number of buried marbles, MBT",C57BL/6J mice [2],reduced
same,IC50,"TRPC5; HEK293T, 100 nmol/L Englerin A, read-out: IC50, inhibition of TRPC5, calcium flux assay",66 pM
same,inhibition of TRPC5 calcium influx,TRPC5; at concentrations of 1.4 nmol/L or higher,More than 80%
same,fold increase in activity (vs compound 6),"TRPC5; calcium flux, SAR",approximately 15 fold
same,immobility time in FST,C57BL/6 mice,significantly reduced
same,Agonist JDIC-127 @10 μmol/L,δOR; agonist mode,7.81%
same,inhibition at 10 µM,δOR; [4],-21.6%
same,Agonist JDIC-127 @10 μmol/L,α1A; agonist mode,0.76%
same,inhibition at 10 µM,α1A; [4],-3.05%
same,Agonist JDIC-127 @10 μmol/L,ETA; agonist mode,1.45%
same,inhibition at 10 µM,"ETA; antagonist mode, read-out: Antagonist JDIC-127 @10 μmol/L",2.63%
same,Agonist JDIC-127 @10 μmol/L,A2A; agonist mode,–1.55%
same,Antagonist JDIC-127 @10 μmol/L,A2A; antagonist mode,–2.78%
same,Agonist JDIC-127 @ 5 μmol/L,GABAA; agonist mode,0.74%
same,Antagonist JDIC-127 @5 μmol/L,GABAA; antagonist mode,26.35%
same,effect on the 44 safety targets,[3],no significant inhibitory or stimulatory effects
same,effect of mutation on inhibitory potency of JDIC-127,TRPC5 Q573A,significantly diminished
same,ER,in vitro,1.45
same,Papp,in vitro,1.51 ×10⁻⁶ cm/s
same,inhibition at 1 µM,TRPC6,< 20%
